From patent US20080269102A1, “3-(2-Alkoxycarbonyloxy-Phenyl) Acrylic Acid Esters And Their Use As Precursors For The Delivery Of Olfactory Compounds” (GIVAUDAN SA, priority 2004, published 2008)

Assays:
[1] = UV-spectra / colour comparison of protected and non-protected fragrance precursor in presence of a fabric conditioner; type: physicochemical; conditions: 0.1 mg/ml in CH3CN/H2O (3:2), visually judged
Protocol: UV-Spectra Comparison (Protected/Non Protected Fragrance in Presence of a Fabric Conditioner)
Solutions A to D, 5 ml each, were prepared using CH3CN/H2O (3:2) as a solvent and their colour visually judged.
After adding a fabric conditioner to a solution comprising an unprotected fragrance precursor (solution A/B) the solution turned bright yellow, whereas a solution comprising a protected fragrance precursor (solution C/D) remains colourless.
The UV-spectra of solutions A to D were recorded and are depicted in FIG. 1.

[2] = additive fabric conditioner (30 mg)

| Colour [1, 2] | Colour ([1]; additive none) | melting point [°C] | Compound |
| --- | --- | --- | --- |
| colourless | colourless |  | C=CCCCCCCCCOC(=O)C=Cc1ccccc1OC(=O)Oc1ccccc1C=CC(=O)OCCCCCCCCC=C [Example 3] |
| Bright | colourless | 58 | C=CCCCCCCCCOC(=O)C=Cc1ccccc1O [Example 2, 3-(2-Hydroxy-phenyl)acrylic acid dec-9-enyl ester] |
|  |  | 37 to 39 | CC(C)=CCCC(C)CCOC(=O)C=Cc1ccccc1O (stereo not drawn) [Example 1, 3-(2-Hydroxy-phenyl)acrylic acid 3,7-dimethyl-oct-6-enyl ester] |
